According to the supplement of paper PMC10331698:
± gives the standard deviation of the averaged measurements.

Assays:
Test in all cases: level (log10 ratio to DMSO vehicle control); higher = higher biomarker level / cell amount than vehicle control
[1] = compound: FC(F)(F)C(F)(F)CNCC(F)(F)C(F)(F)F [Bis(1H,1H-perfluoropropyl)amine]; conditions: in DMSO
Procedure: (§1)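 BioMAP Diversity Plus panel of 12 human primary cell co-culture systems (3C, 4H, LPS, SAg, BT, BF4T, BE3C, CASM3C, HDF3CGF, KF3CT, MyoF, Mphg). Compounds were added 1 h before stimulation and left for 24 h (MyoF 48 h; BT 72 h for soluble read-outs or 6 d for IgG). Biomarkers were read by ELISA, cytotoxicity by SRB, PBMC viability and proliferation by Alamar Blue. Each well value was divided by the mean of 8 DMSO control wells on the same plate and log10 transformed; duplicate blinded samples were tested at 4 concentrations.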

[2] = compound: FC(F)(F)C(F)(F)C(F)(F)C(F)(F)C(F)(F)C(F)(F)C(F)(F)I [1-Iodopentadecafluoroheptane]; conditions: in DMSO
Procedure: as §1

[3] = compound: C=C(C)C(=O)OCCC(F)(F)C(F)(F)C(F)(F)C(F)(F)C(F)(F)C(F)(F)F [6:2 Fluorotelomer methacrylate]; conditions: in DMSO
Procedure: as §1

[4] = compound: C=CC(=O)OCC(F)(F)C(F)(F)C(F)(F)COC(=O)C=C [1H,1H,5H,5H-Perfluoro-1,5-pentanediol diacrylate]; conditions: 6700 nM; in DMSO
Procedure: as §1

[5] = compound: O=C(O)C=CC(F)(C(F)(F)F)C(F)(F)F [3-(Perfluoroisopropyl)-2-propenoic acid]; conditions: in DMSO
Procedure: as §1

[6] = compound: FC(F)(F)C(F)(F)C(F)(F)CC1CO1 [1H,1H-Heptafluorobutyl epoxide]; conditions: in DMSO
Procedure: as §1

| Test System | level (log10) ([1]; 6700 nM) | level (log10) ([1]; 20000 nM) | level (log10) ([1]; 60000 nM) | level (log10) ([2]; 6700 nM) | level (log10) ([2]; 20000 nM) | level (log10) ([3]; 6700 nM) | level (log10) ([3]; 20000 nM) | level (log10) ([3]; 60000 nM) | level (log10) [4] | level (log10) ([5]; 6700 nM) | level (log10) ([5]; 20000 nM) | level (log10) ([5]; 60000 nM) | level (log10) ([6]; 6700 nM) | level (log10) ([6]; 20000 nM) | level (log10) ([6]; 60000 nM) |
| --- | --- | --- | --- | --- | --- | --- | --- | --- | --- | --- | --- | --- | --- | --- | --- |
| LPS:CD69 | 0.016 ± 0.028 | 0.0075 ± 0.053 | 0.03 ± 0.09 | -0.0105 ± 0.033 | 0.037 ± 0.0057 | -0.0355 ± 0.019 | -0.0095 ± 0.026 | 0.0175 ± 0.053 | -0.0365 ± 0.036 | -0.0365 ± 0.025 | -0.0375 ± 0.00071 | -0.0255 ± 0.023 | -0.012 ± 0.031 | -0.0365 ± 0.029 | 0.0095 ± 0.018 |
| SAg:CD40 | 0.011 ± 0.017 | 0.0025 ± 0.0064 | -0.003 ± 0.02 | -0.0065 ± 0.013 | -0.007 ± 0.0085 | -0.024 ± 0.04 | -0.0255 ± 0.028 | -0.0315 ± 0.012 | -0.14 ± 0.033 | -0.006 ± 0.058 | -0.005 ± 0.04 | -0.038 ± 0.014 | -0.01 ± 0.034 | -0.0015 ± 0.0064 | -0.0235 ± 0.013 |
